# According to patent US20100152100A1, “ACCELERATED THERAPY” (Gloucester Pharmaceuticals, Inc., priority 2008, published 2010):
# Legend:
# [1] = Accelerated romidepsin dosing, clinical trial experience (unit doses given intravenously over about one hour or less)
# [2] = Earlier clinical investigations of romidepsin: observed toxicities and deaths; conditions: early development; out of more than 450 patients
# [3] = human, in vivo
# [4] = patient five, (Breast Cancer), 8 mg/m^2
# [5] = patient four, (Breast Cancer), 8 mg/m^2
# [6] = patient two, (Multiple Myeloma), 10 mg/m^2
# [7] = patient, (Multiple Myeloma), 8 mg/m^2
smiles,measurement,setting,value
"C/C=C1\NC(=O)[C@H]2CSSCC/C=C/[C@H](CC(=O)N[C@H](C(C)C)C(=O)N2)OC(=O)[C@H](C(C)C)NC1=O [romidepsin, (1S,4S,10S,16E,21R)-7-[(2Z)-ethylidene]-4,21-diisopropyl-2-oxa-12,13-dithia-5,8,20,23-tetraazabicyclo[8.7.6]tricos-16-ene-3,6,9,19,22-pentanone]","electrocardiogram findings, lab abnormalities, adverse events, and serious adverse events overall",[1]; 15 patients on accelerated dosing regimens,consistent with the results seen in prior clinical trials utilizing romidepsin
same,Clinically Significant Lab Abnormalities,[1]; [4],None
same,Related SAEs,[1]; [4],None
same,ECG Findings (Machine Alerts),"[1]; patient five, (Breast Cancer), 8 mg/m^2, full wrapped cell: Nonspecific T wave changes, low QRS voltages, tachycardia, possible anterior infarction, left atrial abnormality",Nonspecific T wave
same,Related Adverse Events,"[1]; patient five, GPI-06-0005 (Breast Cancer), 8 mg/m^2 on Days 1, 8, and 15 of Cycle 2 and beyond, 6 accelerated doses, full wrapped cell: Fatigue, dysphagia, dizziness","Fatigue,"
same,Clinically Significant Lab Abnormalities,[1]; [5],None
same,Related SAEs,[1]; [5],None
same,ECG Findings (Machine Alerts),"[1]; patient four, (Breast Cancer), 8 mg/m^2, full wrapped cell: Left anterior fascicular block, low QRS voltages, nonspecific T wave changes, possible left ventricular hypertrophy, possible anterior infarction, tachycardia, sinus arrhythmia",Left anterior
same,Related Adverse Events,"[1]; patient four, GPI-06-0005 (Breast Cancer), 8 mg/m^2 on Days 1, 8, and 15 of Cycle 2 and beyond, 5 accelerated doses, full wrapped cell: Fatigue, vomiting, anemia, anorexia","Fatigue,"
same,Related SAEs,"[1]; patient one, (Multiple Myeloma), 10 mg/m^2",None
same,ECG Findings (Machine Alerts),"[1]; patient one, (Multiple Myeloma), 10 mg/m^2, full wrapped cell: Sinus tachycardia, nonspecific ST changes, low QRS voltages, junctional depression prior to baseline","Sinus tachycardia,"
same,Clinically Significant Lab Abnormalities,"[1]; patient one, (Multiple Myeloma), 10 mg/m^2, full wrapped cell: Thrombocytopenia, anemia, neutropenia, increased serum creatinine, hyperpcalcemia","Thrombocytopenia,"
same,Related Adverse Events,"[1]; patient one, GPI-08-0006 (Multiple Myeloma), 10 mg/m^2 on Days 1, 8, and 15 of Cycle 1 and beyond, 2 accelerated doses, full wrapped cell: Flushing, cold feeling, nausea, vomiting, back pain, canker sore, fatigue, UTI, hypokalemia, hypophosphatemia","Flushing,"
same,Related SAEs,"[1]; patient three, (Multiple Myeloma), 10 mg/m^2",None
same,ECG Findings (Machine Alerts),"[1]; patient three, (Multiple Myeloma), 10 mg/m^2, full wrapped cell: Nonspecific T waves changes possibly due to myocardial ischemia, results consistent with baseline ECGs",Nonspecific T waves
same,Clinically Significant Lab Abnormalities,"[1]; patient three, (Multiple Myeloma), 10 mg/m^2, full wrapped cell: Thrombocytopenia, anemia, neutropenia","Thrombocytopenia,"
same,Related Adverse Events,"[1]; patient three, GPI-08-0006 (Multiple Myeloma), 10 mg/m^2 on Days 1, 8, and 15 of Cycle 1 and beyond, 13 accelerated doses, full wrapped cell: Nausea, vomiting, flushing, constipation, headache, body aches, abdominal pain, diarrhea, bloating, vein erythema","Nausea,"
same,QTC (ECG machine alert),[1]; [6],close to 450
same,Related SAEs,[1]; [6],None
same,ECG Findings (Machine Alerts),"[1]; patient two, (Multiple Myeloma), 10 mg/m^2, full wrapped cell: T wave changes, conduction defect of right bundle branch block, low QRS spatial velocity, QTC close to 450","T wave changes,"
same,Clinically Significant Lab Abnormalities,"[1]; patient two, (Multiple Myeloma), 10 mg/m^2, full wrapped cell: Thrombocytopenia, anemia, neutropenia, increased serum creatinine","Thrombocytopenia,"
same,Related Adverse Events,"[1]; patient two, GPI-08-0006 (Multiple Myeloma), 10 mg/m^2 on Days 1, 8, and 15 of Cycle 1 and beyond, 2 accelerated doses, full wrapped cell: Knee pain, headache, skin crawling, cold feet, malaise, bowel urgency, nausea, vomiting","Knee pain,"
same,Adverse Events reported directly after infusion,"[1]; patient, 78 kg, 26 mg on days 1, 8, and 15 of 28 day cycle, accelerated dose Day 15 of cycle 8, full wrapped cell: Nausea, vomiting and diarrhoea, heamaturia","Nausea,"
same,LAB,"[1]; patient, 78 kg, 26 mg, accelerated dose Day 15 of cycle 8, full wrapped cell: Hypocalcaemia noted",Hypocalcaemia
same,ECG,"[1]; patient, 78 kg, 26 mg, accelerated dose Day 15 of cycle 8, full wrapped cell: Post infusion ECG - peaked T waves laterally and subtle ST depression laterally but otherwise normal ECG next day was normal",Post infusion
same,Adverse Events reported directly after infusion,"[1]; patient, 95.8 Kg, 30.5 mg on days 1, 8, and 15 of 28 day cycle, accelerated dose Day 1 of cycle 8",None
same,lateral ST depression on post infusion ECG,"[1]; patient, 95.8 Kg, 30.5 mg, accelerated dose Day 1 of cycle 8, asymptomatic",of 1 mm.
same,LAB,"[1]; patient, 95.8 Kg, 30.5 mg, accelerated dose Day 1 of cycle 8, full wrapped cell: No immediate effect but hypocalcaemia later",No immediate
same,ECG,"[1]; patient, 95.8 Kg, 30.5 mg, accelerated dose Day 1 of cycle 8, full wrapped cell: Post infusion ECG asymptomatic - showed some lateral ST depression of 1 mm. ECG 2 hours later showed improvement",Post infusion
same,Related SAEs,"[1]; patient, 103 Kg, (Multiple Myeloma), 10 mg/m^2",None
same,ECG Findings (Machine Alerts),"[1]; patient, 103 Kg, (Multiple Myeloma), 10 mg/m^2, full wrapped cell: Nonspecific T wave changes, ST junctional depression",Nonspecific T wave
same,Clinically Significant Lab Abnormalities,"[1]; patient, 103 Kg, (Multiple Myeloma), 10 mg/m^2, full wrapped cell: Thrombocytopenia, anemia, neutropenia, hypoalbuminemia","Thrombocytopenia,"
same,Related Adverse Events,"[1]; patient, 103 Kg, GPI-08-0006 (Multiple Myeloma), 10 mg/m^2 on Days 1, 8, and 15 of Cycle 1 and beyond, 4 accelerated doses, full wrapped cell: Nausea, thrombocytopenia, fatigue, vein erythema, vomiting","Nausea,"
same,Adverse Events reported directly after infusion,"[1]; patient, 13 mg on days 1, 8, and 15 of 28 day cycle, accelerated dose Day 15 of cycle 2",None
same,LAB,"[1]; patient, 13 mg, accelerated dose Day 15 of cycle 2, full wrapped cell: No abnormalities",No
same,ECG,"[1]; patient, 13 mg, accelerated dose Day 15 of cycle 2, full wrapped cell: Post dose ECGs taken on same day and next day, no abnormalities notes",Post dose
same,Related SAEs,"[1]; patient, (Giant Cell), 12 mg/m^2",None
same,Clinically Significant Lab Abnormalities,"[1]; patient, (Melanoma), 8 mg/m^2",None
same,Related SAEs,"[1]; patient, (Melanoma), 8 mg/m^2",None
same,ECG Findings (Machine Alerts),"[1]; patient, (Melanoma), 8 mg/m^2, full wrapped cell: Nonspecific T wave changes possibly due to myocardial ischemia, low QRS voltages, sinus tachycardia, possible inferior infarction",Nonspecific T wave
same,Clinically Significant Lab Abnormalities,[1]; [7],None
same,Related SAEs,[1]; [7],None
same,ECG Findings (Machine Alerts),"[1]; patient, (Multiple Myeloma), 10 mg/m^2, full wrapped cell: T wave inversion, low QRS voltages, reversed R wave progression","T wave inversion,"
same,Clinically Significant Lab Abnormalities,"[1]; patient, (Multiple Myeloma), 10 mg/m^2, full wrapped cell: Thrombocytopenia, anemia, neutropenia, hypoalbuminemia, hypokalemia","Thrombocytopenia,"
same,Related SAEs,"[1]; patient, (Multiple Myeloma), 10 mg/m^2, full wrapped cell: Vomiting, headache, dehydration","Vomiting,"
same,Clinically Significant Lab Abnormalities,"[1]; patient, (NHL), 8 mg/m^2",None
same,Related SAEs,"[1]; patient, (NHL), 8 mg/m^2",None
same,ECG Findings (Machine Alerts),"[1]; patient, (NHL), 8 mg/m^2, full wrapped cell: Probable normal variant, borderline lateral T wave changes, low QRS voltages",Probable normal
same,Related SAEs,"[1]; patient, (Ovarian Cancer), 12 mg/m^2, full wrapped cell: Atrial fibrillation",Atrial
same,Related Adverse Events,"[1]; patient, GPI-06-0005 (Melanoma), 8 mg/m^2 on Days 1, 8, and 15 of Cycle 2 and beyond, 3 accelerated doses, full wrapped cell: Fatigue, vomiting","Fatigue,"
same,Related Adverse Events,"[1]; patient, GPI-06-0005 (NHL), 8 mg/m^2 on Days 1, 8, and 15 of Cycle 2 and beyond, 3 accelerated doses",Fatigue
same,ECG Findings (Machine Alerts),"[1]; patient, GPI-08-0006 (Multiple Myeloma), 8 mg/m^2 on Days 1, 8, and 15 of Cycle 1 and beyond, 4 accelerated doses",None
same,Related Adverse Events,"[1]; patient, GPI-08-0006 (Multiple Myeloma), 10 mg/m^2 on Days 1, 8, and 15 of Cycle 1 and beyond, 1 accelerated dose, full wrapped cell: Nausea, vomiting, headache, dehydration","Nausea,"
same,rate of serious adverse events vs unit doses administered over about 4 hours,[1]; unit doses over less than about one hour,without increasing the rate of serious adverse events
same,deaths during clinical investigations,[2],6
same,serial serum troponin levels and multiple gated acquisition (MUGA) scans,[3],consistently normal
same,severity of observed toxicities,[3],mild to moderate
